Data on 47 molecules can be found in patent US10150728B2, “Alkylene derivatives” (Shionogi & Co., Ltd., priority 2013, dated 2018).

For this assay, the target named is recombinant human ACC2 (Homo sapiens (Human), UniProt O00763). The assay can be described thus: Measurement of inhibitory activity on human ACC2 (MALDI-TOF MS, acetyl CoA to malonyl CoA conversion). Format: biochemical. The following applies: Tables 155-159. The method in brief: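 His-tagged human ACC2 (residues 27–2458) from baculovirus-infected Sf-9 cells was preincubated 1 h in pH 7.4 HEPES-KOH buffer with MgCl2, 6-10 mM potassium citrate, glutathione and BSA. Substrate solution held 1 mM ATP, 0.8 mM acetyl CoA and 25-50 mM bicarbonate. After 1–3 h at room temperature, malonyl CoA/(malonyl+acetyl CoA) was read by negative-mode MALDI-TOF MS; citrate, bicarbonate and time varied by enzyme lot.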
recombinant human ACC2, sequence (O00763 27-2458): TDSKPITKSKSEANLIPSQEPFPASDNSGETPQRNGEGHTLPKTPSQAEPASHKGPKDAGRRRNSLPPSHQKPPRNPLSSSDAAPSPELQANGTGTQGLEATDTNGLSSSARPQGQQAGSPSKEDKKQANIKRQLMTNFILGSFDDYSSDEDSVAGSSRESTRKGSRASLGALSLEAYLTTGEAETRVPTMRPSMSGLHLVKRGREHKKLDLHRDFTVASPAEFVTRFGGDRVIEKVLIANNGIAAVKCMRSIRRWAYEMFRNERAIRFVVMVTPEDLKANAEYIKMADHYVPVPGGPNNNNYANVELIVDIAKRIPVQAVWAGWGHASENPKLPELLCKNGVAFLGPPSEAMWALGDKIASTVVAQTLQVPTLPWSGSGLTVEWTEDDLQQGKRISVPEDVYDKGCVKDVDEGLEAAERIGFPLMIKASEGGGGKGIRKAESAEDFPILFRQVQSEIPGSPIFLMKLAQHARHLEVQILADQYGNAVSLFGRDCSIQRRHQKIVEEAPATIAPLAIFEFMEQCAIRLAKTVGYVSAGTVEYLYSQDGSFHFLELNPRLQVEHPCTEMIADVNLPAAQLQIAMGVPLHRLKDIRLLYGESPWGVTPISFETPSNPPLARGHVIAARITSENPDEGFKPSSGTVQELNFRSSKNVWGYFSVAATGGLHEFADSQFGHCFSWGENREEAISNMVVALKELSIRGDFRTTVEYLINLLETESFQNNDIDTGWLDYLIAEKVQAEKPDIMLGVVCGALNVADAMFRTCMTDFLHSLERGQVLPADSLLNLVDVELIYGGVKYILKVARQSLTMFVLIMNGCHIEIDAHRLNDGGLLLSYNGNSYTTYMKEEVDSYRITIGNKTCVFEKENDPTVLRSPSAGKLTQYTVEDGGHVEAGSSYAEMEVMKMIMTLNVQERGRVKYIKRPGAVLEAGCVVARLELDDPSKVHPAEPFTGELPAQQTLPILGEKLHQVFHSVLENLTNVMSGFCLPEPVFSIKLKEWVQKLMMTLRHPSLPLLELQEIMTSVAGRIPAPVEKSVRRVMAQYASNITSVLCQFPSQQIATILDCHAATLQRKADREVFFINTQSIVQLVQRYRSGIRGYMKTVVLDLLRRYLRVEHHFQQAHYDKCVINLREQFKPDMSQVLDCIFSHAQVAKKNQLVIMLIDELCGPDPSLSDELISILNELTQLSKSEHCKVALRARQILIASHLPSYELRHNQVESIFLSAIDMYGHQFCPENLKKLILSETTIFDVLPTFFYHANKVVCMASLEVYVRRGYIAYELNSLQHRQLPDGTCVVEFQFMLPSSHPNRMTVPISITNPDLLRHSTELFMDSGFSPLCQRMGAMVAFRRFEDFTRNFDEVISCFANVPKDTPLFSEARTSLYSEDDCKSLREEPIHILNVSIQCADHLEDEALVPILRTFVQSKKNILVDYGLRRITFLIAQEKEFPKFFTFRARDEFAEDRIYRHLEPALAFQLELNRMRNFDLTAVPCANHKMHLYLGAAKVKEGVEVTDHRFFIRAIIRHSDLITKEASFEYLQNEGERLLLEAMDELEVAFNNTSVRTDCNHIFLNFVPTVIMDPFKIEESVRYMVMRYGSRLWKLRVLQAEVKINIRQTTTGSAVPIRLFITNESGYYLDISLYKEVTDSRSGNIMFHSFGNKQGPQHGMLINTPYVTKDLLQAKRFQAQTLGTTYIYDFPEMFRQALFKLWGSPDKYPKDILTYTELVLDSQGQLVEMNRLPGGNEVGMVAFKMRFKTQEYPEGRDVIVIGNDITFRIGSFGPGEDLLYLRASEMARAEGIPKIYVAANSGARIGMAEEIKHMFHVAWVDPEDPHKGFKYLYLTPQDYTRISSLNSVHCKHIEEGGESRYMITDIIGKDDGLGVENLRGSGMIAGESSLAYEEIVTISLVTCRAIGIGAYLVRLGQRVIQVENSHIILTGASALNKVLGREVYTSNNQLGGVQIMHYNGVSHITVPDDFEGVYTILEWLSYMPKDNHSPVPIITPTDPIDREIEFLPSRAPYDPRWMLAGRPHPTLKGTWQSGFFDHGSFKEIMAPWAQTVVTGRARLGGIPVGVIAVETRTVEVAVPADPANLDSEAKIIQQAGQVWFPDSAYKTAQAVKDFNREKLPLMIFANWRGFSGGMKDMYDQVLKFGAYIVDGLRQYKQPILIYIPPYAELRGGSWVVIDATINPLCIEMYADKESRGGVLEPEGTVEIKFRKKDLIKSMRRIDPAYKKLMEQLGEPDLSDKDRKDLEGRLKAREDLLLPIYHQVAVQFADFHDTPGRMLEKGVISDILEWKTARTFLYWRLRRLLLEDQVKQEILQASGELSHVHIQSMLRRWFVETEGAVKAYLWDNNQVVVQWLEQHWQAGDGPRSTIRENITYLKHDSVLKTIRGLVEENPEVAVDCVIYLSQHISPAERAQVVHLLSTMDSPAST
For the molecule `CC(=O)N[C@@H](C)CO[C@H]1CC[C@H](Oc2ccc3nc(OCC4CC4(F)F)n(C)c3n2)CC1` (some centres unmarked) [Compound I-503], the IC50 was determined as 24 nM.
The same measure for `CC(=O)N[C@@H](C)CO[C@H]1CC[C@H](Oc2ccc3nc(OCCC(F)(F)F)n(C)c3n2)CC1` [Compound I-504]: 18 nM.
With `CCCOc1nc2ccc(O[C@H]3CC[C@H](OC[C@H](C)NC(C)=O)CC3)nc2n1C` [Compound I-505], the IC50 is 12 nM.
The same measure for `CCOc1nc2ccc(O[C@H]3CC[C@H](OC[C@H](C)NC(C)=O)CC3)cc2n1C` [Compound I-506]: 249 nM; for `CCOc1nc2ccc(O[C@H]3CC[C@H](OC[C@H](C)NC(C)=O)CC3)c(F)c2n1C` [Compound I-507]: 132 nM; for `CC(=O)N[C@@H](C)CO[C@H]1CC[C@H](Oc2cc(C)c3nc(Oc4ccc(F)cc4)n(C)c3n2)CC1` [Compound I-508]: 81 nM.
In the case of `CC(=O)N[C@@H](C)CO[C@H]1CC[C@H](Oc2cc(C)c3nc(OCC4CC4)n(C)c3n2)CC1` [Compound I-509], the half-maximal inhibitory concentration (IC50) was 225 nM.
Next, `CCOc1nc2cc(Cl)c(O[C@H]3CC[C@H](OC[C@H](C)NC(C)=O)CC3)nc2n1C` [Compound I-510]: 28 nM; `CC(=O)N[C@@H](C)CO[C@H]1CC[C@H](Oc2ccc3nc(OC4CCC(F)(F)CC4)n(C)c3n2)CC1` [Compound I-511]: 22 nM; `CC(=O)N[C@@H](C)CO[C@H]1CC[C@H](Oc2ccc3nc(CC4CC4)n(C)c3n2)CC1` [Compound I-512]: 110 nM.
Regarding `CC(=O)N[C@@H](C)CO[C@H]1CC[C@H](Oc2ccc3nc(C(C)C)n(C)c3n2)CC1` [Compound I-513], the half-inhibitory concentration (IC50) worked out at 260 nM.
Next, `CC(=O)N[C@@H](C)CO[C@H]1CC[C@H](Oc2ccc3nc(CCC4CC4)n(C)c3n2)CC1` [Compound I-514]: 32 nM; `CC(=O)N[C@@H](C)CO[C@H]1CC[C@H](Oc2ccc3nc(CCC(F)(F)F)n(C)c3n2)CC1` [Compound I-515]: 41 nM.
The same measure for `CCOc1nc2cc(F)c(O[C@H]3CC[C@H](OC[C@H](C)NC(C)=O)CC3)nc2n1C` [Compound I-516]: 27 nM; for `CCCOc1nc2cc(F)c(O[C@H]3CC[C@H](OC[C@H](C)NC(C)=O)CC3)nc2n1C` [Compound I-517]: 14 nM; for `CC(=O)N[C@@H](C)CO[C@H]1CC[C@H](Oc2nc3c(cc2F)nc(OC2CC(F)(F)C2)n3C)CC1` [Compound I-518]: 13 nM.
Next, `CCOc1nc2ccc(OC[C@H]3C[C@H](OC[C@H](C)NC(C)=O)C3)nc2n1C` [Compound I-519]: 170 nM; `CCOc1nc2ccc(OC[C@H]3C[C@@H](OC[C@H](C)NC(C)=O)C3)nc2n1C` [Compound I-520]: 315 nM; `CC(=O)N[C@@H](C)CO[C@H]1CC[C@H](Oc2ncc(-c3ncc(F)cn3)cc2F)CC1` [Compound I-521]: 20 nM.
For `CC(=O)N[C@@H](C)CO[C@H]1CC[C@H](Oc2ncc(-c3ncc(F)cn3)cc2Cl)CC1` [Compound I-522], the IC50 worked out at 8 nM.
Take `CC(=O)N[C@@H](C)CO[C@H]1CC[C@H](Oc2ncc(-c3ncccn3)cc2F)CC1` [Compound I-523]: the IC50 was 105 nM.
The same measure for `CC(=O)N[C@@H](C)CO[C@H]1CC[C@H](Oc2ncc(-c3ncc(C#N)cn3)cc2F)CC1` [Compound I-524]: 64 nM; for `CC(=O)N[C@@H](C)CO[C@H]1CC[C@H](Oc2ncc(-c3ncc(F)cn3)cc2C#N)CC1` [Compound I-525]: 41 nM; for `CC(=O)N[C@@H](C)CO[C@H]1CC[C@H](Oc2ncc(-c3ncc(Cl)cn3)cc2F)CC1` [Compound I-526]: 13 nM.
Next, `COc1cc(-c2ncc(F)cn2)cnc1O[C@H]1CC[C@H](OC[C@H](C)NC(C)=O)CC1` [Compound I-527]: 158 nM; `COc1cnc(-c2cnc(O[C@H]3CC[C@H](OC[C@H](C)NC(C)=O)CC3)c(F)c2)nc1` [Compound I-528]: 61 nM.
The same measure for `CC(=O)N[C@@H](C)CO[C@H]1CC[C@H](Oc2ncc(-c3ncc(C(C)C)cn3)cc2F)CC1` [Compound I-529]: 172 nM.
For `CC(=O)N[C@@H](C)CO[C@H]1CC[C@H](Oc2ncc(-c3ncc(C#N)cn3)cc2C#N)CC1` [Compound I-530], the half-maximal inhibitory concentration (IC50) came out at 196 nM.
Next, `CC(=O)N[C@@H](C)CO[C@H]1CC[C@H](Oc2ncc(-c3nccc(C#N)n3)cc2F)CC1` [Compound I-531]: 481 nM.
With `CC(=O)N[C@@H](C)CO[C@H]1CC[C@H](Oc2ncc(-c3ncc(F)cn3)cc2C)CC1` [Compound I-532], the IC50 came out at 6 nM.
Next, `CCc1cnc(-c2cnc(O[C@H]3CC[C@H](OC[C@H](C)NC(C)=O)CC3)c(F)c2)nc1` [Compound I-533]: 102 nM; `CC(=O)N[C@@H](C)CO[C@H]1CC[C@H](Oc2ncc(-c3ncc(C)cn3)cc2F)CC1` [Compound I-534]: 67 nM.
Turning to `CC(=O)N[C@@H](C)CO[C@H]1CC[C@H](Oc2ncc(-c3ncc(Cl)cn3)cc2C#N)CC1` [Compound I-535], the IC50 stood at 30 nM.
On to `CC(=O)N[C@@H](C)CO[C@H]1CC[C@H](Oc2ncc(-c3ncc(C4CC4)cn3)cc2F)CC1` [Compound I-536], for which the IC50 amounted to 28 nM.
On to `CC(=O)N[C@@H](C)CO[C@H]1CC[C@H](Oc2ncc(-c3ncc(F)cn3)cc2OCc2ccccc2)CC1` [Compound I-537], for which the IC50 is 975 nM.
With `C[C@@H](CO[C@H]1CC[C@H](Oc2ncc(-c3ncc(F)cn3)cc2F)CC1)NC(N)=O` [Compound I-538], the half-inhibitory concentration (IC50) was found to be 71 nM.
On to `CCOC(=O)c1cc(C(=O)N[C@@H](C)CO[C@H]2CC[C@H](Oc3ncc(-c4ncc(F)cn4)cc3F)CC2)ccn1` [Compound I-539], for which the IC50 worked out at 92 nM.
As to `C[C@@H](CO[C@H]1CC[C@H](Oc2ncc(-c3ncc(F)cn3)cc2F)CC1)NS(C)(=O)=O` [Compound I-540], the IC50 stood at 323 nM.
For `COC(=O)N[C@@H](C)CO[C@H]1CC[C@H](Oc2ncc(-c3ncc(F)cn3)cc2F)CC1` [Compound I-541], the IC50 is 130 nM.
Next, `CC(=O)N[C@@H](C)CO[C@H]1CC[C@H](Oc2ncc(-c3ncc(F)cn3)cc2F)CC1` [Compound I-542]: 6 nM; `CC(=O)N[C@@H](C)CC[C@H]1CC[C@H](Oc2ncc(-c3ncc(C(F)(F)F)cn3)cc2F)CC1` [Compound I-543]: 14 nM.
In the case of `CC(=O)N[C@@H](C)CC[C@H]1CC[C@H](Oc2ncc(-c3ncc(Cl)cn3)cc2F)CC1` [Compound I-544], the IC50 was found to be 4 nM.
With `CC(=O)N[C@@H](C)CO[C@H]1CC[C@H](Oc2ncc(-c3ncc(C(F)(F)F)cn3)cc2F)CC1` [Compound I-545], the IC50 amounted to 46 nM.
Next, `CC(=O)N[C@@H](C)CO[C@H]1CC[C@H](Oc2ncc(-c3ncc(C(F)(F)F)cn3)cc2C#N)CC1` [Compound I-546]: 66 nM.
The same measure for `CC(=O)N[C@@H](C)CO[C@H]1CC[C@H](Oc2nc3ccc(Br)cc3s2)CC1` [Compound I-547]: 104 nM; for `CC(=O)N[C@@H](C)CO[C@H]1CC[C@H](Oc2ncc3cc(OCC4CC4)ccc3n2)CC1` [Compound I-548]: 124 nM; for `CC(=O)N[C@@H](C)CO[C@H]1CC[C@H](Oc2nc3cc(Br)ccc3s2)CC1` [Compound I-549]: 37 nM.
